Experimental data reported in patent US6420559B1, “1-(4-arylpiperazin-1-yl)-ω-[N-(α,ω-dicarboximido)]-alkanes useful as uro-selective α1-adrenoceptor blockers” (Ranbaxy Laboratories Limited, priority 1997, dated 2002).
Where a name gives a salt, the structure may show the parent alone. Blank lines part the entries; values can stand above or below the molecule they belong to.

Key:
[1] = test system: anaesthetized normotensive rats; test: In vivo blood pressure, anaesthetized normotensive rats, intravenous route; design: species or system rat; settings: 0.3 mg/kg intravenous, 3 hours observation
Experimental: (§1) Antihypertensive effect of selected compounds according to the invention were studied for their ability to lower blood pressure in anaesthetized and conscious normotensive and spontaneously hypertensive rats via intravenous, oral and intraduodenal routes.
Male wistar rats were anaesthetized with urethane (2.5 g/kg). Femoral vein and carotid artery were cannulated. Blood pressure and heart rate were recorded using Statham pressure transducer. Data was recorded on Grass polygraph as well as using online data acquisition system (Buxco AT). Intravenously administered compounds of the invention were initially tested at 0.3 mg/kg over a period of 3 hours for their effect on blood pressure and the results are shown in Table 1. For a select few of the compounds, the blood pressure lowering effect upon intravenous administration was also studied at dosages of 0.03, 0.1, 0.3, and 1 mg/kg.

[2] = biological target: Muscarinic cholinergic receptor (Rattus norvegicus, UniProt P08483); test: In vitro receptor selectivity, rat trachea; type: cell-based
Experimental: (§2) Selectivity of action of the present compounds was tested against a range of different receptors, e.g., β1- and α2-adrenergic, muscarinic cholinergic, serotoninergic (5-HT2A), histaminergic (H1), angiotensin II, endothelin (ETA and B,), as well as calcium and potassium channels. Rat aorta was used to study the effect of the compounds on 5-HT2A, ETA, calcium and potassium channels. Angiotensin II receptor antagonistic activity was studied in rabbit aorta. Muscarinic cholinergic receptor and ETB receptor antagonistic activity was studied in rat trachea, while guinea pig trachea was used to study H1 receptor antagonistic activity. Electrically stimulated rat vas deferens was used to investigate the effect of α2-adrenoceptors, while β1-adrenoceptor antagonistic activity was studied using electrically stimulated rat ventricular strips. Results of this selectivity study is shown in (Table 2).

[3] = test system: anaesthetized normotensive rats; test: Mean arterial pressure in anaesthetized normotensive rats, intraduodenal route; type: in vivo, rat
Experimental: as §1
Male wistar rats were fasted for 18 hours. Rats were anaesthetized with urethane. Femoral vein and carotid artery were cannulated. A catheter was placed in the duodenum following lapratomy. The compounds of the present invention (at dosages of 0.3, 1, 3 and 10 mg/kg) were administered in the duodenum and blood pressure was monitored for 3 hours.

[4] = test system: conscious spontaneously hypertensive rats; test: Systolic blood pressure in conscious spontaneously hypertensive rats, oral; type: in vivo, rat
Experimental: Spontaneously hypertensive rats weighing between 250-300 g were used in this study. Rats were fasted overnight. Blood pressure was monitored from tail artery using semi-automatic noninvasive blood pressure monitoring apparatus. Compounds of the present invention (at dosages of 1, 3, 10, and 30 mg/kg) were administered orally. Blood pressure was monitored prior to and 1.5, 4, 6 and 24 hours after drug administration.

[5] = test system: conscious freely moving normotensive rats; test: Mean arterial blood pressure in conscious freely moving normotensive rats, oral; type: in vivo, rat
Experimental: Femoral artery of normotensive male wistar rats, maintained on an overnight light diet, were catheterized under pentobarbitone anaesthesia (35 mg/kg). Femoral artery catheter was exteriorized through the neck region for blood pressure recording. […] Blood pressure and heart rate were recorded with the help of Statham pressure transducer on a Grass polygraph and the results are shown in Table 4.

[6] = test system: anaesthetized dogs; test: In vivo selectivity study, phenylephrine-induced blood pressure and intraurethral pressure in anaesthetized dogs; design: species or system dog; settings: iv, against phenylephrine dose response
Experimental: Male mongrel dogs (12-20 Kg) were anaesthetized with pentobarbitone sodium (35 mg/kg, iv). Trachea was intubated for artificial respiration. Femoral artery and femoral vein were cannulated for recording blood pressure and for administration of drug solutions, respectively. Blood pressure was recorded on a polygraph through a pressure transducer. A paramedian incision was made lateral to the penis and the bladder was exposed. Urine was drained through a cannula put directly into the bladder and it was guided into the urethra gently and was placed at the prostatic urethra. Balloon was inflated with 2 cc air and its placement was confirmed by digital pressure. Intraurethral pressure was recorded on the polygraph through a pressure transducer. Graded dose response relationship of phenylephrine (1-16 μg/kg, iv) was obtained on prostatic pressure and blood pressure, prior to administration of the compounds of the present invention. Compounds 2, 9, and 13 (at dosages of 0.01, 0.03, 0.1, and 0.3 mg/kg) were administered intravenously 10 min before obtaining phenylephrine dose response curves. Results were analyzed and pseudo pKB values were calculated as described in Kenny et al (1996).

[7] = biological target: α1-adrenergic; settings: cited from earlier work
[8] = test system: Potassium Channel; test: In vitro receptor selectivity, rat aorta; type: cell-based; settings: NE: No effect
Experimental: as §2

Muscarinic cholinergic receptor, sequence (P08483 whole entry): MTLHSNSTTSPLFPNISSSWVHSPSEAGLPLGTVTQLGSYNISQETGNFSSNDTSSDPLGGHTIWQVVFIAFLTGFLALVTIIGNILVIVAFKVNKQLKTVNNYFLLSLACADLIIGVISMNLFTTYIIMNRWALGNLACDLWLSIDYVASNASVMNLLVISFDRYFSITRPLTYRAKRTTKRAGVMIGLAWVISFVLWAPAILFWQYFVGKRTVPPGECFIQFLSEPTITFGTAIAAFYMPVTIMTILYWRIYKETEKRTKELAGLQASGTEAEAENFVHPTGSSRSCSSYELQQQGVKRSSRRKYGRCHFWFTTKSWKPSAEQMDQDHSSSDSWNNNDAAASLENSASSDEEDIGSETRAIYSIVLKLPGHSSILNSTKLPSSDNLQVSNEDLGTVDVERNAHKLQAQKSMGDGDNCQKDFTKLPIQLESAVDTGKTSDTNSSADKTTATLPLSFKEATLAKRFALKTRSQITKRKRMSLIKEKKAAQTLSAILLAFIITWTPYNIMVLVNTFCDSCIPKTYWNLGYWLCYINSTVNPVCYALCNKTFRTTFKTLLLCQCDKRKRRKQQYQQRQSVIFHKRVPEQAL

SMILES: COc1ccccc1N1CCN(CCCCN2C(=O)CCC2=O)CC1 [Compound 9, 1-[4-(2-Methoxyphenyl)piperazin-1-yl]-4-(2,5-dioxopyrrolidin-1-yl)butane]
Duration [1]: >180 min
In Vivo BP Fall in mmHg [1]: 46 mmHg
pKB Muscarinic [2]: 5.0
Duration of Action ([3]; 1 mg/kg intraduodenal): >3.0 h
Mean Arterial Pressure (% Change from basal) ([3]; 1 mg/kg intraduodenal): −19%
Duration of Action ([3]; 3 mg/kg intraduodenal): >3.0 h
Mean Arterial Pressure (% Change from basal) ([3]; 3 mg/kg intraduodenal): −53%
Duration of Action ([3]; 10 mg/kg intraduodenal): >3.0 h
Mean Arterial Pressure (% Change from basal) ([3]; 10 mg/kg intraduodenal): −57%
Systolic Pressure (% Change from basal) (at 6 hours) ([4]; 1 mg/kg oral): −0.4%
Systolic Pressure (% Change from basal) (at 6 hours) ([4]; 3 mg/kg oral): −7.0%
Systolic Pressure (% Change from basal) (at 6 hours) ([4]; 10 mg/kg oral): −24.0%
Systolic Pressure (% Change from basal) (at 6 hours) ([4]; 30 mg/kg oral): −25.0%
Mean Arterial Pressure (% Change from basal) ([5]; 1 mg/kg oral): −4%
Mean Arterial Pressure (% Change from basal) ([5]; 10 mg/kg oral): −11%
pseudo pKB Blood Pressure [6]: 7.4
pseudo pKB Intraurethral Pressure [6]: 7.9

SMILES: COc1cc2nc(N3CCN(C(=O)c4ccco4)CC3)nc(N)c2cc1OC [prazosin]
α1-adrenergic blocking activity (pKi) [7]: > 8

SMILES: COc1ccccc1N1CCN(CCCN2C(=O)CCC2=O)CC1 [Compound 2, 1-[4-(2-Methoxyphenyl)piperazin-1-yl]-3-(2,5-dioxopyrrolidin-1-yl)propane]
Duration [1]: 120.0 min
In Vivo BP Fall in mmHg [1]: 25 mmHg
pKB Muscarinic [2]: 5.0
Duration of Action ([3]; 1 mg/kg intraduodenal): >2.5 h
Mean Arterial Pressure (% Change from basal) ([3]; 1 mg/kg intraduodenal): −19%
Duration of Action ([3]; 3 mg/kg intraduodenal): >2.5 h
Mean Arterial Pressure (% Change from basal) ([3]; 3 mg/kg intraduodenal): −43%
Duration of Action ([3]; 10 mg/kg intraduodenal): >2.5 h
Mean Arterial Pressure (% Change from basal) ([3]; 10 mg/kg intraduodenal): −42%
Systolic Pressure (% Change from basal) (at 6 hours) ([4]; 1 mg/kg oral): −7.0%
Systolic Pressure (% Change from basal) (at 6 hours) ([4]; 3 mg/kg oral): −12.0%
Systolic Pressure (% Change from basal) (at 6 hours) ([4]; 10 mg/kg oral): −13.0%
Systolic Pressure (% Change from basal) (at 6 hours) ([4]; 30 mg/kg oral): −17.0%
Mean Arterial Pressure (% Change from basal) ([5]; 3 mg/kg oral): −14%
Mean Arterial Pressure (% Change from basal) ([5]; 10 mg/kg oral): −10%
pseudo pKB Blood Pressure [6]: 6.9
pseudo pKB Intraurethral Pressure [6]: 7.60

SMILES: COc1ccccc1N1CCN(CCCN2C(=O)CCCC2=O)CC1 [Compound 13, 1-[4-(2-Methoxyphenyl)piperazin-1-yl]-3-(2,6-dioxopiperidin-1-yl)propane]
Duration [1]: >180 min
In Vivo BP Fall in mmHg [1]: 50.0 mmHg
pKB Muscarinic [2]: 5.5
pKB Potassium Channel [8]: 5
Duration of Action ([3]; 1 mg/kg intraduodenal): <3.0 h
Mean Arterial Pressure (% Change from basal) ([3]; 1 mg/kg intraduodenal): −32%
Duration of Action ([3]; 3 mg/kg intraduodenal): >3.0 h
Mean Arterial Pressure (% Change from basal) ([3]; 3 mg/kg intraduodenal): −40%
Duration of Action ([3]; 10 mg/kg intraduodenal): >3.0 h
Mean Arterial Pressure (% Change from basal) ([3]; 10 mg/kg intraduodenal): −42%
Systolic Pressure (% Change from basal) (at 6 hours) ([4]; 1 mg/kg oral): −7.0%
Systolic Pressure (% Change from basal) (at 6 hours) ([4]; 3 mg/kg oral): −18.0%
Systolic Pressure (% Change from basal) (at 6 hours) ([4]; 10 mg/kg oral): −19.0%
Systolic Pressure (% Change from basal) (at 6 hours) ([4]; 30 mg/kg oral): −14.0%
Mean Arterial Pressure (% Change from basal) ([5]; 1 mg/kg oral): −5%
Mean Arterial Pressure (% Change from basal) ([5]; 3 mg/kg oral): −10%
pseudo pKB Blood Pressure [6]: 7.1
pseudo pKB Intraurethral Pressure [6]: 8.1

SMILES: O=C1CCCC(=O)N1CCCN1CCN(c2ccc(F)cc2)CC1 [Compound 14, 1-[4-(4-Fluorophenyl)piperazin-1-yl]-3-(2,6-dioxopiperidin-1-yl)propane]
Duration [1]: 60.0 min
In Vivo BP Fall in mmHg [1]: 20.0 mmHg
melting point: 200 to 202 °C

SMILES: O=C1CCCC(=O)N1CCCN1CCN(c2ccccc2F)CC1 [Compound 17, 1-[4-(2-Fluorophenyl)piperazin-1-yl]-3-(2,6-dioxopiperidin-1-yl)propane]
Duration [1]: 120.0 min
In Vivo BP Fall in mmHg [1]: 50.0 mmHg

melting point: 206 to 207 °C
SMILES: Cc1ccccc1N1CCN(CCCN2C(=O)CCCC2=O)CC1 (as salt: hydrochloride) [Compound 18, 1-[4-(2-Methylphenyl)piperazin-1-yl]-3-(2,6-dioxopiperidin-1-yl)propane]

SMILES: O=C1CCC(=O)N1CCCN1CCN(c2ccc(F)cc2)CC1 (as salt: hydrochloride) [Compound 1, 1-[4-(4-Fluorophenyl)piperazin-1-yl]-3-(2,5-dioxopyrrolidin-1-yl)propane]
melting point: 246 to 247 °C

melting point: 206 to 208 °C
SMILES: O=C1CCCC(=O)N1CCCN1CCN(c2ccc(Cl)cc2)CC1 (as salt: hydrochloride) [Compound 15, 1-[4-(4-Chlorophenyl)piperazin-1-yl]-3-(2,6-dioxopiperidin-1-yl)propane]

SMILES: COc1ccccc1N1CCN(CCCN2C(=O)CCC2=O)CC1 (as salt: hydrochloride) [Compound 2, 1-[4-(2-Methoxyphenyl)piperazin-1-yl]-3-(2,5-dioxopyrrolidin-1-yl)propane]
melting point: 199 to 202 °C

SMILES: O=C1CCC(=O)N1CCCN1CCN(c2ccc(F)cc2)CC1 [Compound 1, 1-[4-(4-Fluorophenyl)piperazin-1-yl]-3-(2,5-dioxopyrrolidin-1-yl)propane]
Duration [1]: 15.0 min
In Vivo BP Fall in mmHg [1]: 5.0 mmHg

SMILES: Cc1ccccc1N1CCN(CCCN2C(=O)CCCC2=O)CC1 [Compound 18, 1-[4-(2-Methylphenyl)piperazin-1-yl]-3-(2,6-dioxopiperidin-1-yl)propane]
Duration [1]: >150 min
In Vivo BP Fall in mmHg [1]: 40.0 mmHg
